# Where two headings read alike, the source gives them in different places.
# What was measured:
# [1] = test system: HIV‐1 LAI; experiment: Anti-HIV-1 activity in T CD4+ H9 cells, LAI reference strain; format: cell-based; conditions: Human immunodeficiency virus 1, mean from three experiments
# Protocol: (§1) Peripheral blood mononuclear cells (PBMC) from healthy donors were isolated and stimulated for 3 days with […] of phytohemagglutinin‐P (PHA‐P, Sigma) and 5 IU/mL of recombinant human interleukin‐2 (rHuIL‐2, Roche). PBMC were growth under CO2 in a humid atmosphere at 37 °C in RPMI‐1640 GlutaMAX medium supplemented with antibiotics (penicillin, streptomycin, neomycin), 10 % fetal calf serum (FCS, previously inactivated by heat) and 10 UI/mL of rHuIL‐2. The HIV‐1 LAI strain was previously described.[19] Resistant viral strains are from the NIH AIDS Research & Reference Reagent Program (HIV‐1–52534‐2, HIV‐1–56252‐1, HIV‐1–71361‐1, and HIV‐1–7324‐1) carry mutations in RT.[16]
# (§2) PHA‐P activated PBMCs (1.5×10^5 cells) were pre‐treated for 30 min by increasing concentrations of the various compounds to be tested and then infected with […] infectious tissue culture doses 50 % (TCID50) of the HIV‐1‐LAI. Supernatants were collected at day 7 post infection and stored at ‐ 20 °C. Viral replication was measured by quantifying reverse transcriptase activity in cell culture supernatants by the use of Lenti kit RT (Cavidi). Cytotoxicity of the compounds was evaluated in uninfected PHA‐P PBMC by MTT assay (Promega) on day 7. Experiments were performed in triplicate and repeated with another blood donors. Data analyses were performed using SoftMax® Pro 4.6 software (Molecular Devices). Percent of inhibition of RT activity or cell viability were plotted versus compound concentration and fitted with quadratic curves to determine 50 % effective concentration (EC50) and 50 % cytotoxic concentration (CC50). The viral resistant strains were amplified and the viral stocks titrated using cells of the H9 line.[20] More specifically, with regard to the antiviral test, the cells were distributed in the wells of 96‐well microplates at the rate of 50,000 cells per well. They were then pretreated for 30 minutes with increasing concentrations of the various compounds to be tested and then infected with 125 TCID50 of the various resistant strains. Seven and 14 days after infection, culture supernatants were collected and frozen at −20 ° C until measurement of viral replication via quantification of the enzymatic activity of the TI. The EC50 was calculated as previously described. A possible cytotoxicity of the molecules towards the cells of the H9 line was assessed by microscopic observation throughout the cell cultures.
# [2] = test system: HIV‐1‐56252‐1; experiment: Anti-HIV-1 activity in T CD4+ H9 cells, resistant strain 56252-1; format: cell-based; conditions: Human immunodeficiency virus 1; strain 56252‐1, T CD4+ H9 cells, mean from three experiments
# Protocol: as §1, §2
# [3] = test system: HIV‐1‐7324‐1; experiment: Anti-HIV-1 activity in T CD4+ H9 cells, resistant strain 7324-1; format: cell-based; conditions: Human immunodeficiency virus 1; strain 7324‐1, T CD4+ H9 cells, mean from three experiments
# Protocol: as §1, §2
# [4] = test system: HIV‐1‐52534‐2; experiment: Anti-HIV-1 activity in T CD4+ H9 cells, resistant strain 52534-2; format: cell-based; conditions: strain 52534‐2, T CD4+ H9 cells; for EC50: Human immunodeficiency virus 1, mean from three experiments
# Protocol: as §1, §2
# [5] = test system: HIV‐1‐71361‐1; experiment: Anti-HIV-1 activity in T CD4+ H9 cells, resistant strain 71361-1; format: cell-based; conditions: Human immunodeficiency virus 1, H9
# Protocol: as §1, §2
# [6] = test system: human peripheral blood mononuclear cells (PBMC); set-up: method as in earlier work; conditions: ref 4b, cited from earlier work; for CC50: read-out: CC50, cytotoxic concentration of drug required to reduce cell growth by 50 %
# [7] = test system: HIV‐1 LAI strain; conditions: ref 4b, cited from earlier work; for EC50: read-out: EC50, effective concentration of drug required to reduce viral replication by 50 %, HIV-1 LAI in human PBMC; for SI = CC50/EC50: HIV-1 LAI in PBMC
# [8] = test system: HIV‐1 LAI strain; experiment: Anti-HIV-1 LAI activity in PHA-P activated PBMC (RT activity in supernatants); format: cell-based; conditions: for EC50: read-out: EC50, effective concentration of drug required to reduce viral replication by 50 %
# Protocol: as §1, §2
# [9] = Cytotoxicity in uninfected PHA-P PBMC by MTT assay; format: cell-based, human; conditions: human
# Protocol: as §1, §2
# [10] = test system: human peripheral blood mononuclear cells (PBMC); experiment: Cytotoxicity in uninfected PHA-P PBMC by MTT assay; format: cell-based
# Protocol: as §1, §2
# [11] = Human immunodeficiency virus 1, 168 h, HIV-1 LAI in human PBMC, day 7 post infection, mean from 3 blood donors
# [12] = uninfected PBMC, MTT, day 7, mean from 3 blood donors, read-out: CC50, cytotoxic concentration of drug required to reduce cell growth by 50 %
# [13] = Human immunodeficiency virus 1, PBMC, 168 h
Structure (SMILES),EC50 [1] [nM],EC50 [2] [nM],EC50 [3] [nM],EC50 [4] [nM],EC50 [5] [nM],CC50 [6] [nM],cytotoxicity (in words) [6],EC50 [7] [nM],SI = CC50/EC50 ([8]; HIV-1 LAI in PBMC),"EC50 [8, 11] [nM]","CC50 at 7 days [9, 12] [nM]",cytotoxicity (in words) ([10]; PBMC),"EC50 [8, 13] [nM]",CC50 at 7 days [9] [nM],SI = CC50/EC50 [7],SI = CC50/EC50 ([7]; listed as Tenofovir),"anti‐HIV‐1 activity, fold greater than that of the D‐like enantiomer ([8]; HIV-1 LAI in PBMC, EC50 ratio versus D-like bis(POM) prodrug) [fold]","anti‐HIV‐1 activity, fold greater than Tenofovir ([8]; HIV-1 LAI in PBMC, EC50 ratio versus Tenofovir) [fold]",cytotoxicity (in words) [10],antiviral activity (in words) [4]
Nc1ncnc2c1ncn2[C@H]1C=C(F)[C@@H](OCP(=O)(O)O)C1 (racemic) [(±)‐1],660,10000,170,≥ 10000,3730,≥ 10000,without additional cytotoxicity,880,–,–,–,–,–,–,–,–,–,–,–,–
Nc1ncnc2c1ncn2[C@H]1C=C(F)[C@@H](OCP(=O)(O)O)C1 [(+)‐1],–,–,–,–,–,–,–,–,≥2.32,4300,≥ 10000,No cytotoxicity,–,–,–,–,–,–,–,–
"CC(C)(C)C(=O)OCOP(=O)(CO[C@H]1C[C@@H](n2cnc3c(N)ncnc32)C=C1F)OCOC(=O)C(C)(C)C [(+)‐9, bis‐(Pivaloyloxymethyl)‐((1’S,4’R)‐4‐(6‐amino‐9H‐purin‐9‐yl)‐2‐fluorocyclopent‐2‐en‐1‐yl)oxymethyl‐phosphonate]",1850,960,240,≥ 10000,680,–,–,–,–,–,–,–,510,≥ 10000,–,–,–,–,–,–
"C[C@H](Cn1cnc2c(N)ncnc21)OCP(=O)(O)O [(R)‐PMPA, reference compound]",130,1650,100,6100,100,≥ 10000,–,1100,–,–,–,–,–,–,≥9.1,9.1,–,–,–,–
Nc1ncnc2c1ncn2[C@@H]1C=C(F)[C@H](OCP(=O)(O)O)C1 [(−)‐1],330,690,420,≥ 10000,900,–,–,–,≥52.6,190,≥ 10000,No cytotoxicity,–,–,–,–,–,–,–,–
"CC(C)(C)C(=O)OCOP(=O)(CO[C@@H]1C[C@H](n2cnc3c(N)ncnc32)C=C1F)OCOC(=O)C(C)(C)C [(−)‐9, bis‐(Pivaloyloxymethyl)‐((1’R,4’S)‐4‐(6‐amino‐9H‐purin‐9‐yl)‐2‐fluorocyclopent‐2‐en‐1‐yl)oxymethyl‐phosphonate]",110,90,10,580,110,–,–,–,–,–,–,–,63,5200,–,–,8,17,some cytotoxicity,remains significantly active

# Reference: article PMC9825896, “Discovery of an L‐like Configuration for 3’‐Fluoro‐5’‐norcarbonucleoside Phosphonates as Potent Anti‐HIV Agents” (Chemmedchem, 2022)
